Measured values taken from PMC8345109, “Optimization of New Catalytic Topoisomerase II Inhibitors as an Anti-Cancer Therapy” (Cancers, 2021).
Converted amounts (≈) assume the structure as drawn. Where two headings read alike, the source gives them in different places.

Columns and labels:
Solubility by LC/MS/MS = format: physicochemical; details: kinetic from dmso stock
Experimental: Stock solutions of the tested compounds at 50 mM in dimethyl sulfoxide (DMSO) were diluted 50-fold in methanol (MeOH), Roswell Park Memorial Institute-1640 (RPMI1640), plus 5% charcoal-stripped serum (CSS) from Sigma-Aldrich (media) and phosphate-buffered saline (PBS), and vortexed at room temperature for 1 h at 800 rpm. The resulting solutions were centrifuged at 20,000× g for 5 min, and the saturated supernatants were diluted 40-fold in acetonitrile. The resultant solutions were subjected to LC/MS/MS to determine the solubility.

TOP2B = TOP2B (Homo sapiens, UniProt Q02880); test: K-DNA decatenation assay, TOP2B; format: biochemical; details: 0.01-200 uM, three biological repeats
TOP2B, sequence (Q02880 whole entry): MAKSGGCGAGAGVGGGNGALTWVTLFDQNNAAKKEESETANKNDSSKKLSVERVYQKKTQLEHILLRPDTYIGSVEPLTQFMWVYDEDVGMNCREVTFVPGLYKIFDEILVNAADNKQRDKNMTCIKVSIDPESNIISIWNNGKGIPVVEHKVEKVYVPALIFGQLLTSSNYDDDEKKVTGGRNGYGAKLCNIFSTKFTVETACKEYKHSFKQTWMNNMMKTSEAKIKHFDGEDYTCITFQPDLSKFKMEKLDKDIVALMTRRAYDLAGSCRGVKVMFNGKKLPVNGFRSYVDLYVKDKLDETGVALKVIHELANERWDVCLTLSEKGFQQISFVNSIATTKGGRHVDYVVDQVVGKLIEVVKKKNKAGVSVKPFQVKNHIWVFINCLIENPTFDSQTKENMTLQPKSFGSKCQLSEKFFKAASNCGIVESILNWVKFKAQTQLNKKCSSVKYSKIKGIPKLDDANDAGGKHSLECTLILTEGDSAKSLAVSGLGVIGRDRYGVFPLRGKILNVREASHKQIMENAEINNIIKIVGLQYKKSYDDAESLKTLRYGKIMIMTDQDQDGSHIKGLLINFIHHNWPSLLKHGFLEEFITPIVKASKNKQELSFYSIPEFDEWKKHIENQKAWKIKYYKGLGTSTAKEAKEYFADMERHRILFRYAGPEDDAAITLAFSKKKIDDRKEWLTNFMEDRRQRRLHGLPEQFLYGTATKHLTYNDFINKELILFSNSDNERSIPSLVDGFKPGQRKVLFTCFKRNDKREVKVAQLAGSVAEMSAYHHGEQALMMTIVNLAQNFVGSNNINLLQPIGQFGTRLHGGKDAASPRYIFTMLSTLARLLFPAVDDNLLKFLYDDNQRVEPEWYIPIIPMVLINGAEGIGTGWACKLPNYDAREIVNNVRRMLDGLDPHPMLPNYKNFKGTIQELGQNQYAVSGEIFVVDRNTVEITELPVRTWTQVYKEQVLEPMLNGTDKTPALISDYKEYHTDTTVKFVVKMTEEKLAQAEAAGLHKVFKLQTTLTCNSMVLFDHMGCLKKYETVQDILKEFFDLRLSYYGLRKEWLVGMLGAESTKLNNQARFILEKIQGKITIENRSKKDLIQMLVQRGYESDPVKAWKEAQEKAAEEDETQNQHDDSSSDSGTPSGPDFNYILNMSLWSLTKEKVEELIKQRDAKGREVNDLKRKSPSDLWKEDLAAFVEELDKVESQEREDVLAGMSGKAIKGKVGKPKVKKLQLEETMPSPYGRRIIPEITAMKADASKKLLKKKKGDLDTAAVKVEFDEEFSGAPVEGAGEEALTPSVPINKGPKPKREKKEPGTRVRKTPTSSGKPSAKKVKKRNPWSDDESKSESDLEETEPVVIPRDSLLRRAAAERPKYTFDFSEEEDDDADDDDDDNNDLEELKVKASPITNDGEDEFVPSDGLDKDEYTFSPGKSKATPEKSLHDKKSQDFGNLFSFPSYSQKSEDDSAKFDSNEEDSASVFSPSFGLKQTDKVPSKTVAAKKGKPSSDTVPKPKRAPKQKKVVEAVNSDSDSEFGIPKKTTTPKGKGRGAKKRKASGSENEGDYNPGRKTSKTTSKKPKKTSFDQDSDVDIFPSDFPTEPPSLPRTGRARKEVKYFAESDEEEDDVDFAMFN
Experimental: Figure 3 T637 and T638 are TOP2B inhibitors. (A) K-DNA decatenation assays and (B) supercoiled plasmid DNA relaxation assays are used to measure TOP2B activity in the presence of 0.01–200 uM T637 or T638. Three biological repeats were performed with each concentration of the compounds, and the densitometry of the D-DNA bands from (A) and the SC bands from (B) was used to establish an inhibition curve for IC50 calculation.

K562 cells [1] = test: Cytotoxicity by LDH release; details: K562, 0-20 uM, 48 h
Experimental: (§1) (A) K562 cells were treated with 0, 0.5, 1, 5, 10, 15, and 20 uM of T60 or 0, 0.5, 1, 5, 10, 15, 20, 50, and 100 uM of T637 and T638 for 24, 48, or 72 h. […] (B) NCI-H446 small cell lung cancer line and Hela cervical cancer line were treated with 0, 0.5, 1, 5, 10, 15, and 20 uM of T60 or 0, 0.5, 1, 5, 10, 15, 20, 50, and 100 uM of T637 and T638 for five days. Cell growth rates were measured by using Incucyte^TM. (C) K562 cells were treated with 0, 5, 10, 15, and 20 uM of T60, T637, or T638 for 48 h. Cytotoxicity was evaluated by measuring the LDH levels from the culture media. (D) K562 cells were treated with the vehicle or 10–20 µM of etoposide, T60, T637, or T638 for 4 h. Immunoblotting measured p-H2AXγ levels in cells with vinculin as a loading control.

[2] = test system: small cell lung cancer line NCI-H446; test: NCI-H446 cell growth (Incucyte); details: Homo sapiens, NCI-H446, 120 h, read-out: Cell growth inhibition
Experimental: as §1

K562 leukemia cells = test: K562 cell proliferation (MTS assay); details: K562, up to 100 uM
Experimental: as §1

K562 cells [3] = test: Immunoblotting of p-H2AXγ (DNA damage); details: K562, 10-20 µM, 4 h
Experimental: as §1

full-length TOP2B = full-length TOP2B (Homo sapiens, UniProt Q02880); test: EMSA, full-length TOP2B with 5ZRF DNA oligo; format: binding; design: EMSA was performed by purified full-length TOP2A or TOP2B proteins; details: 200 µM compound, 300 nM protein, 100 nM oligo
full-length TOP2B, sequence (Q02880 whole entry): as above
Experimental: (A) EMSA was performed by purified full-length TOP2A or TOP2B proteins at a contraction of 300 nM with IRDay700 labeled 5ZRF DNA oligo at a concentration of 100 nM in the presence of −/+200 µM of ICRF193, T60, T637, and T638. […] Reactions were subjected to fluorescence […], which were detected by using the Multimode Microplate Reader (Infinite F500). (D) DNA cleavage assays were performed using full-length human TOP2A and TOP2B incubated with the supercoiled pHOT plasmid in the presence of 200 µM of etoposide plus 1, 100, or 200 µM of ICRF193, T60, T637, and T638. Reactions were separated on a DNA gel with ethidium bromide. All experiments were repeated three times, and one representative image was shown. Note: N, nicked DNA; L, linear DNA; and SC, supercoiled DNA.

For Nc1cc(Nc2ccccc2)ccc1NC(=O)c1ccc[nH]c1=S [T638], which solubility at 1 h (Solubility by LC/MS/MS; RPMI1640 plus 5% charcoal-stripped serum, plasma or biological fluid, cell culture media with serum, read-out: Solubility Media/FBS) is on record?
Its solubility at 1 h is 485 µM.

What about the solubility at 1 h (Solubility by LC/MS/MS; methanol, organic solvent or mixture, methanol, read-out: Solubility Methanol) of the same compound?
Its solubility at 1 h is over 1000 µM.

What about the solubility at 1 h (Solubility by LC/MS/MS; phosphate-buffered saline, aqueous buffer, PBS, read-out: Solubility PBS) of the same compound?
The solubility at 1 h was 142 µM (≈ 47.8 µg/mL).

And the IC50 (TOP2B)?
Its IC50 is about 3.8 µM.

What about the “Cytotoxicity (LDH release), in words” value (K562 cells [1]) of the same compound?
Its value is “not observed”.

What about the inhibition at 100 µM [2] of the same compound?
The inhibition at 100 µM was 100%.

What about the “Maximum cell proliferation inhibition” value (K562 leukemia cells; 48 h) of the same compound?
The value was 100%.

And the “Maximum cell proliferation inhibition” value (K562 leukemia cells; 72 h)?
Its value is 100%.

What about the “Intracellular DNA damage (phospho-H2AXγ protein levels)” value (K562 cells [3]) of the same compound?
The value was “do not cause intracellular DNA damage”.

What about the “Block of TOP2B-DNA oligo complex formation (EMSA)” value (full-length TOP2B) of the same compound?
Its value is “block”.
